Broadly, the IC50 is the point on the concentration scale where inhibition reaches its midpoint. For orientation: melting point means the temperature, or range, at which the solid turns liquid.

The structures appear in SMILES notation. Read-outs that look alike come from different tables or passages of the source.

Data set [1] in a line: MTT assay, HL-7702 cells. Format: cell-based, human. Particulars: HL-7702 cells (normal liver cells); normal human liver cells, MTT, 72 h; read-out: Cytotoxic activity (IC50) HL-7702. As to the method:
(§1) Primary human liver HL-7702 cells were purchased from SIBS (Shanghai Institutes for Biological Sciences, Shanghai, China) while MCF-7, A549, PC-9 and PC-3 cells were from ATCC (American Type Culture Collection, Rockville, MD, USA). HL-7702, PC-9 and A549 cells were incubated with Roswell Park Memorial Institute (RPMI) 1640 medium and MCF-7 were cultured in Dulbecco’s Modified Eagle’s Medium (DMEM) supplemented with 10% heat-inactivated fetal bovine serum (FBS) and 1% antibiotics (penicillin and streptomycin). PC-3, a human prostate adenocarcinoma cell, was maintained in Ham’s F-12 Medium supplemented with 10% FBS, 1% penicillin/streptomycin and 1% glutamine. All cells were cultured at 37 °C in an incubator containing 5% CO2. The cell viability was determined by using the MTT (methyl thiazolyl tetrazolium bromide) assay. Briefly, cells were seeded in 96-well plates (4 × 10^3 cells/well) overnight and exposed to the synthesized compounds with various concentrations. Camptothecin and dimethyl sulfoxide (DMSO) served as a positive control and a negative control respectively. After 72 h of incubation, 20 μL of MTT (5 mg/mL in phosphate buffer saline (PBS)) were added into each well. Dissolved yellowish MTT is converted to an insoluble purple formazan during incubation (4 h). In order to dissolve the formazan crystals, 100 μL of lysis solution (10% SDS (sodium dodecyl sulfate)-5% isobutyl alcohol-0.01M HCl) was added into per well. Finally, the optical density (OD) of solution in the plates was measured using a microplate reader at 570 nm after dissolving overnight. Cell viability was calculated by using the following formula: […].

The subject of data set [2] is PC-3 cells. The experiment in a line: MTT assay, PC-3 cells. In kind it is cell-based. Particulars: human prostate cancer cells, 72 h, read-out: Cytotoxic activity (IC50) PC-3. As to the method: as §1
On the technique in general: Formazan colour is commonly taken as a measure of viable cells.

The test system of data set [3] is PC-9 cells. The experiment in a line: MTT assay, PC-9 cells. Conditions: human non-small cell lung cancer cells, 72 h, read-out: Cytotoxic activity (IC50) PC-9. In kind it is cell-based. As to the method: as §1
The test system of data set [4] is MCF-7 cells. The experiment in a line: MTT assay, MCF-7 cells. Format: cell-based. Particulars: MCF7, human breast cancer cells, 72 h, read-out: Cytotoxic activity (IC50) MCF-7. The procedure: as §1
For data set [5], the system named is A549 cells. The experiment in a line: MTT assay, A549 cells. Format: cell-based. Conditions: human non-small cell lung cancer cells, read-out: Cytotoxic activity (IC50) A549. As to the method:
as §1

Take `CC[C@@]1(O)C(=O)OCc2c1cc1n(c2=O)Cc2cc3ccccc3nc2-1` [CAMPTOTHECIN, camptothecin, reference compound]: in data set [1], the 50% inhibitory concentration (IC50) at 72 h was 0.11 ± 0.03 µM. In addition, the IC50 is 0.85 ± 0.01 µM in data set [2]; 0.09 ± 0.01 µM in data set [3]; 0.26 ± 0.05 µM in data set [4]; 0.1 ± 0.02 µM in data set [5] (Homo sapiens, A549, 72 h).
On the same counts, the results for `O=c1c2c3c(sc2nc(-c2ccc(Cl)cc2)n1Cc1ccccc1)CCCC3` [Compound 1] are above 100 µM, above 100 µM, above 100 µM, above 100 µM and above 100 µM.
On the same counts, the results for `O=c1c2c3c(sc2nc(-c2ccccc2)n1Cc1ccccc1)CCCC3` [Compound 2] are above 100 µM, above 100 µM, above 100 µM, above 100 µM and above 100 µM.
On the same counts, the results for `Cc1ccc(-c2nc3sc4c(c3c(=O)n2Cc2ccccc2)CCCC4)o1` [Compound 3] are 55.17 ± 0.5 µM, 92.9 ± 2.29 µM, 86.1 ± 1.28 µM, above 100 µM and 54.4 ± 1.83 µM.
Take `O=c1c2c3c(sc2nc(-c2ccc(C(F)(F)F)c(C(F)(F)F)c2)n1Cc1ccccc1)CCCC3` [Compound 4]: the melting point lay in the range of 161 to 163 °C. Also, the concentration for half-maximal inhibition (IC50) at 72 h in data set [1] is above 100 µM. The IC50 in data set [2] is above 100 µM. The half-inhibitory concentration (IC50) in data set [3] was above 100 µM. In addition, the IC50 in data set [4] amounted to 24.7 ± 2.04 µM. Moreover, the half-inhibitory concentration (IC50) in data set [5] (Homo sapiens, A549, 72 h) is 58.2 ± 0.65 µM.
`O=c1c2c3c(sc2nc(-c2cccs2)n1Cc1ccccc1)CCCC3` [Compound 5] came in with a melting point of 185 to 187 °C. Moreover, the half-inhibitory concentration (IC50) at 72 h in data set [1] was above 100 µM. Further, the IC50 in data set [2] was above 100 µM. Moreover, the 50% inhibitory concentration (IC50) in data set [3] was 81 ± 3.94 µM. Further, in data set [4], the 50% inhibitory concentration (IC50) turned out to be 97.5 ± 0.13 µM. In data set [5] (Homo sapiens, A549, 72 h), the half-maximal inhibitory concentration (IC50) was above 100 µM.
For the compound `Cc1cc(-c2nc3sc4c(c3c(=O)n2Cc2ccccc2)CCCC4)sc1C` [Compound 6], the IC50 at 72 h in data set [1] was above 100 µM. For the same compound, the IC50 in data set [2] is above 100 µM; in data set [3] it was above 100 µM; in data set [4], 59.86 ± 0.34 µM; in data set [5] (Homo sapiens, A549, 72 h), 17.4 ± 0.88 µM.
As for `O=c1c2c3c(sc2nc(-c2ccc(F)cc2)n1CCc1ccc(O)cc1)CCCC3` [Compound 7], the half-maximal inhibitory concentration (IC50) at 72 h in data set [1] is above 100 µM. Also, the concentration for half-maximal inhibition (IC50) in data set [2] is above 100 µM; in data set [3], 44.8 ± 4.47 µM; in data set [4], 10.4 ± 1.32 µM; in data set [5] (Homo sapiens, A549, 72 h), below 10 µM; in data set [5] (72 h) it was 6.86 ± 0.98 µM.
Consider `Cc1cc(-c2nc3sc4c(c3c(=O)n2CCc2ccc(O)cc2)CCCC4)sc1C` [Compound 8], for which the IC50 at 72 h in data set [1] is above 100 µM. Moreover, the IC50 is 87.75 ± 0.63 µM in data set [2]; 92.97 ± 0.52 µM in data set [3]; above 100 µM in data set [4]; 50.92 ± 0.07 µM in data set [5] (Homo sapiens, A549, 72 h).
Take `O=c1c2c3c(sc2nc(-c2cccc(Cl)c2)n1CCc1ccc(O)cc1)CCCC3` [Compound 9]: the melting point lay in the range of 238 to 240 °C. The IC50 at 72 h in data set [1] is above 100 µM. The IC50 in data set [2] was above 100 µM. The concentration for half-maximal inhibition (IC50) in data set [3] was above 100 µM. Besides, in data set [4], the concentration for half-maximal inhibition (IC50) came to 30.7 ± 0.29 µM. In addition, the 50% inhibitory concentration (IC50) in data set [5] (Homo sapiens, A549, 72 h) was 19.6 ± 0.33 µM.
In the case of `Cc1ccc(-c2nc3sc4c(c3c(=O)n2CCc2ccc(O)cc2)CCCC4)cc1` [Compound 10], the IC50 at 72 h in data set [1] is above 100 µM. The 50% inhibitory concentration (IC50) in data set [2] is 43.4 ± 2.73 µM; in data set [3], 49.7 ± 2.27 µM; in data set [4] it was 27.47 ± 0.02 µM; in data set [5] (Homo sapiens, A549, 72 h) it was below 10 µM; in data set [5] (72 h), 8.51 ± 0.16 µM.
In turn, `O=c1c2c3c(sc2nc(-c2ccco2)n1Cc1ccccc1)CCCCC3` [Compound 11] registered a melting point of 192 to 194 °C. The 50% inhibitory concentration (IC50) at 72 h in data set [1] is above 100 µM. The IC50 in data set [2] was above 100 µM. The IC50 in data set [3] is above 100 µM. For the same compound, the half-inhibitory concentration (IC50) in data set [4] was found to be 65.63 ± 0.26 µM. For the same compound, in data set [5] (Homo sapiens, A549, 72 h), the IC50 was 51.42 ± 0.46 µM.

The record behind these values is PMC6843832, “Synthesis of Novel Analogs of Thieno[2,3-d] Pyrimidin-4(3H)-ones as Selective Inhibitors of Cancer Cell Growth” (Biomolecules, 2019).
